Experimental findings from US9920032B2, “Heterocyclic compounds useful as pim kinase inhibitors” (Incyte Corporation, priority 2015, dated 2018) are described below.

Where only a bound is given, the exact number is not on record here.

What all share (format): biochemical
Assay [1] addresses Pim-1 (Homo sapiens (Human), UniProt P11309). Description: Pim-1 kinase assay. Conditions: 1 mM ATP; read-out: PIM1 IC50. In outline: (§1)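 Enzyme at 2.5 pM (Pim-1) or 1.25 pM (Pim-3) reacted 1 h at 25° C with 1 mM ATP and 0.05 μM biotinylated BAD peptide, pH 7.5. Phospho-Ser112 BAD detected by antibody/Protein-A acceptor and streptavidin donor bead proximity signal after EDTA quench and 1 h dark incubation.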

For assay [2], the target named is Pim-3 (Homo sapiens (Human), UniProt Q86V86). Description: Pim-3 kinase assay. The note with it: 1 mM ATP; read-out: PIM3 IC50. In outline: as §1
Assay [3] deals with Pim-2 (Homo sapiens (Human), UniProt Q9P1W9). Description: Pim-2 kinase assay. Conditions: 1 mM ATP; read-out: PIM2 IC50. In outline:
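TR-FRET assay with 1 nM enzyme, 0.05 μM fluorescein-CREBtide and 1 mM ATP in Tris pH 7.5 buffer with MgCl2, DTT, BSA and Tween-20, run 2 h at 25° C. Stopped with EDTA and Tb-labelled anti-CREB pSer133 antibody, then read after 30 min at room temperature.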

Sequence of Pim-1 (P11309 whole entry): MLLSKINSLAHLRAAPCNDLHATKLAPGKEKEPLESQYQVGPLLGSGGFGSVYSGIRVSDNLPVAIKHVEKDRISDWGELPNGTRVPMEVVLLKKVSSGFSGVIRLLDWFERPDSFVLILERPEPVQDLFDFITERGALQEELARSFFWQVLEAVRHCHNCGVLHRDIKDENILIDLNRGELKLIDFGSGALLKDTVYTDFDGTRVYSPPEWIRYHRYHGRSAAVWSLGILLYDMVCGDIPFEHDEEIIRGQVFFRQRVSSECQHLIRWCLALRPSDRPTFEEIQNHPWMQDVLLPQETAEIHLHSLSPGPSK
Sequence of Pim-2 (Q9P1W9 whole entry): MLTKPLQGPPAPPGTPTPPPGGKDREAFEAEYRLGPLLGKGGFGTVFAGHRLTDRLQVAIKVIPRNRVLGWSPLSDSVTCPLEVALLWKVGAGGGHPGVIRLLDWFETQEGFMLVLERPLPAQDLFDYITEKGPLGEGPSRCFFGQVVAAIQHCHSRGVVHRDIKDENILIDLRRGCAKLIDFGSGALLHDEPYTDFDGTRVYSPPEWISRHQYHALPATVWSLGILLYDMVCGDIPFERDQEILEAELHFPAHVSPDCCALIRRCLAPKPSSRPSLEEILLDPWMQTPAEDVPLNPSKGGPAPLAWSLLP

`C[C@@H]1C[C@H](N)C[C@H](c2ccncc2NC(=O)c2ccc(F)c3cc(N(C)C4CCCC4C#N)cnc23)C1` (stereo partly drawn) [Example 140, N-(4-((1R,3S,5S)-3-Amino-5-methylcyclohexyl)pyridin-3-yl)-3-((2-cyanocyclopentyl)(methyl)amino)-5-fluoroquinoline-8-carboxamide]: the 50% inhibitory concentration (IC50) (in general, the midpoint of a concentration-inhibition curve) was ≤ 0.01 µM in assay [1], ≤ 0.01 µM in assay [2] and ≤ 0.1 µM in assay [3].

Consider `C[C@@H]1C[C@H](N)C[C@H](c2ccncc2NC(=O)c2ccc(F)c3cc(N4CC5(CCOCC5)C4)cnc23)C1` [Example 121, N-(4-((1R,3S,5S)-3-Amino-5-methylcyclohexyl)pyridin-3-yl)-5-fluoro-3-(7-oxa-2-azaspiro[3.5]nonan-2-yl)quinoline-8-carboxamide], for which the figures for the IC50 in assay [1], in assay [2] and in assay [3] were ≤ 0.01 µM, ≤ 0.01 µM and ≤ 0.1 µM, respectively.

For `COC1(C)CN(c2cnc3c(C(=O)Nc4cnccc4[C@@H]4C[C@H](C)C[C@H](N)C4)ccc(F)c3c2)C1` [Example 118, N-(4-((1R,3S,5S)-3-Amino-5-methylcyclohexyl)pyridin-3-yl)-5-fluoro-3-(3-methoxy-3-methylazetidin-1-yl)quinoline-8-carboxamide], the figures for the IC50 in assay [1], in assay [2] and in assay [3] were ≤ 0.01 µM, ≤ 0.01 µM and ≤ 0.1 µM, respectively.

With `C[C@@H]1C[C@H](N)C[C@H](c2ccncc2NC(=O)c2ccc(F)c3cc(NCCF)cnc23)C1` [Example 26, N-{4-[(1R,3S,5S)-3-Amino-5-methylcyclohexyl]pyridin-3-yl}-5-fluoro-3-[(2-fluoroethyl)amino]quinoline-8-carboxamide], the figures for the IC50 in assay [1], in assay [2] and in assay [3] were ≤ 0.01 µM, ≤ 0.01 µM and ≤ 0.1 µM, respectively.

For `C[C@@H]1C[C@H](N)C[C@H](c2ccncc2NC(=O)c2ccc(F)c3cc(N4CCCC(F)(F)C4)cnc23)C1` [Example 28, N-{4-[(1R,3S,5S)-3-Amino-5-methylcyclohexyl]pyridin-3-yl}-3-(3,3-difluoropiperidin-1-yl)-5-fluoroquinoline-8-carboxamide], the results for the 50% inhibitory concentration (IC50) in assay [1], in assay [2] and in assay [3] were ≤ 0.01 µM, ≤ 0.01 µM and ≤ 0.1 µM, respectively.

As for `CO[C@@H]1C[C@H](C)N(c2cnc3c(C(=O)Nc4cnccc4[C@@H]4C[C@H](C)C[C@H](N)C4)ccc(F)c3c2)C1` [Example 155, N-(4-((1R,3S,5S)-3-Amino-5-methylcyclohexyl]pyridin-3-yl}-5-fluoro-3-[(2S,4R)-4-methoxy-2-methylpyrrolidin-1-yl]quinoline-8-carboxamide], the results for the IC50 in assay [1], in assay [2] and in assay [3] were ≤ 0.01 µM, ≤ 0.01 µM and ≤ 0.1 µM, respectively.

Consider `C[C@@H]1C[C@H](N)C[C@H](c2ccncc2NC(=O)c2cccc3cc(N4CCCCC4C(F)F)cnc23)C1` (stereo partly drawn) [Example 71, N-(4-((1R,3S,5S)-3-Amino-5-methylcyclohexyl)pyridin-3-yl)-3-(2-(difluoromethyl)piperidin-1-yl)quinoline-8-carboxamide], for which the IC50 is ≤ 0.01 µM in assay [1], ≤ 0.01 µM in assay [2] and 0.1 to 1 µM in assay [3].

For `COC1CCCN(c2cnc3c(C(=O)Nc4cnccc4[C@@H]4C[C@H](C)C[C@H](N)C4)ccc(F)c3c2)C1` (stereo in doubt) [Example 12, N-{4-[(1R,3S,5S)-3-Amino-5-methylcyclohexyl]pyridin-3-yl}-5-fluoro-3-[(3S)-3-methoxypiperidin-1-yl]quinoline-8-carboxamide], the values for the half-inhibitory concentration (IC50) in assay [1], in assay [2] and in assay [3] were ≤ 0.01 µM, ≤ 0.01 µM and 0.1 to 1 µM, respectively.

Take `C[C@@H]1C[C@H](N)C[C@H](c2ccncc2NC(=O)c2ccc(F)c3cc(N4CCN(C5CC5)C(=O)C4)cnc23)C1` [Example 114, N-(4-((1R,3S,5S)-3-Amino-5-methylcyclohexyl)pyridin-3-yl)-3-(4-cyclopropyl-3-oxopiperazin-1-yl)-5-fluoroquinoline-8-carboxamide]: the 50% inhibitory concentration (IC50) was ≤ 0.01 µM in assay [1], ≤ 0.01 µM in assay [2] and ≤ 0.1 µM in assay [3].

Consider `C[C@@H]1C[C@H](N)C[C@H](c2ccncc2NC(=O)c2ccc(F)c3cc(N4CCC[C@H]4C)nnc23)C1` [Example 95, N-{4-[(1R,3S,5S)-3-Amino-5-methylcyclohexyl]pyridin-3-yl}-5-fluoro-3-[(2R)-2-methylpyrrolidin-1-yl]cinnoline-8-carboxamide], for which the values for the concentration for half-maximal inhibition (IC50) in assay [1], in assay [2] and in assay [3] were ≤ 0.01 µM, ≤ 0.01 µM and ≤ 0.1 µM, respectively.

On to `C[C@@H]1C[C@H](N)C[C@H](c2ccncc2NC(=O)c2ccc(F)c3cc(N4CCn5cnnc5C4)cnc23)C1` [Example 134, N-(4-((1R,3S,5S)-3-Amino-5-methylcyclohexyl)pyridin-3-yl)-3-(5,6-dihydro-[1,2,4]triazolo[4,3-a]pyrazin-7(8H)-yl)-5-fluoroquinoline-8-carboxamide], for which the IC50 in assay [1] is ≤ 0.01 µM; in assay [2] it was ≤ 0.01 µM; in assay [3] it was 0.1 to 1 µM.

In the case of `C[C@@H]1C[C@H](N)C[C@H](c2ccncc2NC(=O)c2ccc(F)c3cc(N4C[C@H]5C[C@@H]4CN5S(C)(=O)=O)cnc23)C1` [Example 87, N-(4-((1R,3S,5S)-3-Amino-5-methylcyclohexyl)pyridin-3-yl)-5-fluoro-3-((1R,4R)-5-(methylsulfonyl)-2,5-diazabicyclo[2.2.1]heptan-2-yl)quinoline-8-carboxamide], the IC50 in assay [1] is ≤ 0.01 µM; in assay [2], ≤ 0.01 µM; in assay [3] it was 0.1 to 1 µM.

In the case of `C[C@@H]1C[C@H](N)C[C@H](c2ccncc2NC(=O)c2ccc(F)c3cc(N(C)[C@@H]4CCOC4)cnc23)C1` [Example 154, N-(4-((1R,3S,5S)-3-Amino-5-methylcyclohexyl)pyridin-3-yl)-5-fluoro-3-(methyl((R)-tetrahydrofuran-3-yl)amino)quinoline-8-carboxamide], the IC50 is ≤ 0.01 µM in assay [1], ≤ 0.01 µM in assay [2] and 0.1 to 1 µM in assay [3].

Take `C[C@@H]1C[C@H](N)C[C@H](c2ccncc2NC(=O)c2ccc(F)c3cc(N(C)c4ncccc4F)cnc23)C1` [Example 142, N-(4-((1R,3S,5S)-3-Amino-5-methylcyclohexyl)pyridin-3-yl)-5-fluoro-3-((3-fluoropyridin-2-yl)(methyl)amino)quinoline-8-carboxamide]: the IC50 in assay [1] is ≤ 0.01 µM; in assay [2], ≤ 0.01 µM; in assay [3], ≤ 0.1 µM.

As to `COC(=O)N1CCCN(c2cnc3c(C(=O)Nc4cnccc4[C@@H]4C[C@H](C)C[C@H](N)C4)ccc(F)c3c2)CC1` [Example 126, Methyl 4-(8-(4-((1R,3S,5S)-3-amino-5-methylcyclohexyl)pyridin-3-ylcarbamoyl)-5-fluoroquinolin-3-yl)-1,4-diazepane-1-carboxylate], the values for the IC50 in assay [1], in assay [2] and in assay [3] were ≤ 0.01 µM, ≤ 0.01 µM and ≤ 0.1 µM, respectively.

For the compound `CO[C@@H]1CCN(c2cnc3c(C(=O)Nc4cnccc4[C@@H]4C[C@H](C)C[C@H](N)C4)ccc(F)c3c2)[C@H](C)C1` [Example 161, N-(4-((1R,3S,5S)-3-Amino-5-methylcyclohexyl)pyridin-3-yl)-5-fluoro-3-((2R,4R)-4-methoxy-2-methylpiperidin-1-yl)quinoline-8-carboxamide], the IC50 in assay [1] was ≤ 0.01 µM; in assay [2] it was ≤ 0.01 µM; in assay [3] it was ≤ 0.1 µM.

`C[C@@H]1C[C@H](N)C[C@H](c2ccncc2NC(=O)c2ccc(F)c3cc(N4CCC[C@@H](F)C4)cnc23)C1` [Example 2, N-{4-[(1R,3S,5S)-3-Amino-5-methylcyclohexyl]pyridin-3-yl}-5-fluoro-3-[(3,R)-3-fluoropiperidin-1-yl]quinoline-8-carboxamide]: the IC50 in assay [1] was ≤ 0.01 µM; in assay [2] it was ≤ 0.01 µM; in assay [3] it was ≤ 0.1 µM.

With `C[C@@H]1C[C@H](N)C[C@H](c2ccncc2NC(=O)c2ccc(F)c3cc(N4CCc5cnn(C)c5C4)cnc23)C1` [Example 127, N-(4-((1R,3S,5S)-3-Amino-5-methylcyclohexyl)pyridin-3-yl)-5-fluoro-3-(1-methyl-4,5-dihydro-1H-pyrazolo[3,4-c]pyridin-6(7H)-yl)quinoline-8-carboxamide], the IC50 in assay [1] is ≤ 0.01 µM; in assay [2], ≤ 0.01 µM; in assay [3], ≤ 0.1 µM.

Take `C[C@@H]1C[C@H](N)C[C@H](c2ccncc2NC(=O)c2ccc(F)c3cc(N4CCN(S(C)(=O)=O)C[C@@H]4C)cnc23)C1` [Example 85, N-(4-((1R,3S,5S)-3-Amino-5-methylcyclohexyl)pyridin-3-yl)-5-fluoro-3-((S)-2-methyl-4-(methylsulfonyl)piperazin-1-yl)quinoline-8-carboxamide]: the half-maximal inhibitory concentration (IC50) in assay [1] was ≤ 0.01 µM; in assay [2], ≤ 0.01 µM; in assay [3] it was 0.1 to 1 µM.

Consider `CO[C@H]1C[C@H](C)N(c2cnc3c(C(=O)Nc4cnccc4[C@@H]4C[C@H](C)C[C@H](N)C4)ccc(F)c3c2)C1` [Example 157, N-(4-((1R,3S,5S)-3-Amino-5-methylcyclohexyl)pyridin-3-yl)-5-fluoro-3-((2S,4S)-4-methoxy-2-methylpyrrolidin-1-yl)quinoline-8-carboxamide], for which the IC50 in assay [1] was ≤ 0.01 µM; in assay [2], ≤ 0.01 µM; in assay [3], ≤ 0.1 µM.

Take `C[C@@H]1C[C@H](N)C[C@H](c2ccncc2NC(=O)c2ccc(F)c3cc(N4CC[C@@H](C#N)C4)cnc23)C1` [Example 8, N-{4-[(1R,3S,5S)-3-Amino-5-methylcyclohexyl]pyridin-3-yl}-3-[(3R)-3-cyanopyrrolidin-1-yl]-5-fluoroquinoline-8-carboxamide]: the IC50 was ≤ 0.01 µM in assay [1], ≤ 0.01 µM in assay [2] and ≤ 0.1 µM in assay [3].
